Source: PubChem BioAssay AID248 (DTP/NCI, 2004)
“And” between values parts separate entries of the source, which are not always exact repeats. Identical values can stand only once. Toxic doses and inconclusive results are not listed.

System: L1210 leukemia ip in BDF1 mice, survival T/C
Experiment: NCI In Vivo Anticancer Drug Screen. Data for tumor model L1210 Leukemia (intraperitoneal) in B6D2F1 (BDF1) mice
Settings: endpoint: mean survival time, higher = longer survival
Method in brief: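 Transplanted-tumor mice were given test agent; controls received vehicle only. Survival readings from the two groups were divided (treated over control).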

[1] = dose: 50.0 mg/kg/injection, schedule: Q01DX009 (ip), vehicle: Klucel (hydroxypropylcellulose) (HPC)
[2] = dose: 100.0 mg/kg/injection, schedule: Q01DX009 (ip), vehicle: Klucel (hydroxypropylcellulose) (HPC)
[3] = dose: 200.0 mg/kg/injection, schedule: Q01DX009 (ip), vehicle: Klucel (hydroxypropylcellulose) (HPC)
[4] = dose: 100.0 mg/kg/injection, schedule: Q04DX003 (ip), vehicle: Klucel (hydroxypropylcellulose) (HPC)
[5] = dose: 200.0 mg/kg/injection, schedule: Q04DX003 (ip), vehicle: Klucel (hydroxypropylcellulose) (HPC)
[6] = dose: 400.0 mg/kg/injection, schedule: Q04DX003 (ip), vehicle: Klucel (hydroxypropylcellulose) (HPC)
[7] = dose: 100.0 mg/kg/injection, schedule: Q04DX003 (ip), vehicle: saline with Tween-80
[8] = dose: 200.0 mg/kg/injection, schedule: Q04DX003 (ip), vehicle: saline with Tween-80
[9] = dose: 400.0 mg/kg/injection, schedule: Q04DX003 (ip), vehicle: saline with Tween-80
[10] = dose: 100.0 mg/kg/injection, schedule: Q01DX009 (ip), vehicle: saline with Tween-80

O=[N+]([O-])c1ccc(N2N=NC(c3ccccc3)C2(c2ccccc2)N2CCOCC2)cc1 (centres undefined)
T/C (dose: 150.0 mg/kg/injection, schedule: Q01DX001 (ip), vehicle: saline): 89 % of control

CCN(CCO)CCNc1ccc(CO)c2sc3cc(Cl)ccc3c(=O)c12
T/C [1]: 91 % of control
T/C [2]: 96 % of control
T/C [3]: 91 % of control

COC(=O)C(Br)c1cccc(OC)c1 (centres undefined)
T/C (dose: 100.0 mg/kg/injection, schedule: Q01DX009 (ip), vehicle: saline sonified): 100 % of control
T/C (dose: 100.0 mg/kg/injection, schedule: Q04DX003 (ip), vehicle: saline sonified): 97 % of control
T/C (dose: 200.0 mg/kg/injection, schedule: Q01DX009 (ip), vehicle: saline sonified): 120 % of control
T/C (dose: 200.0 mg/kg/injection, schedule: Q04DX003 (ip), vehicle: saline sonified): 101 % of control
T/C (dose: 400.0 mg/kg/injection, schedule: Q01DX009 (ip), vehicle: saline sonified): 105 % of control
T/C (dose: 400.0 mg/kg/injection, schedule: Q04DX003 (ip), vehicle: saline sonified): 101 % of control

NC(=O)c1ncc[nH]c1=O
T/C [1]: 94 % of control
T/C (dose: 50.0 mg/kg/injection, schedule: Q01DX009 (ip), vehicle: saline): 97 % of control
T/C [2]: 97 % of control
T/C (dose: 100.0 mg/kg/injection, schedule: Q01DX009 (ip), vehicle: saline): 103 % of control
T/C [4]: 97 % of control
T/C [3]: 105 % of control
T/C (dose: 200.0 mg/kg/injection, schedule: Q01DX009 (ip), vehicle: saline): 90 % of control
T/C [5]: 95 % of control
T/C [6]: 100 % of control

O=[N+]([O-])c1cncc([N+](=O)[O-])c1NCc1ccccc1
T/C [7]: 103 % of control
T/C [8]: 93 % of control
T/C [9]: 104 % of control

CC1(C)CN(Cc2ccc(Cl)cc2)C1=O
T/C (dose: 44.0 mg/kg/injection, schedule: Q01DX001 (ip), vehicle: other): 97 % of control
T/C (dose: 44.0 mg/kg/injection, schedule: Q01DX009 (ip), vehicle: saline with Tween-80): 90 % of control
T/C (dose: 44.0 mg/kg/injection, schedule: Q04DX003 (ip), vehicle: other): 96 % of control
T/C (dose: 50.0 mg/kg/injection, schedule: Q04DX002 (ip), vehicle: other): 154 % of control
T/C (dose: 66.0 mg/kg/injection, schedule: Q01DX001 (ip), vehicle: other): 100 % of control
T/C (dose: 66.0 mg/kg/injection, schedule: Q01DX009 (ip), vehicle: saline with Tween-80): 89 % of control
T/C (dose: 66.0 mg/kg/injection, schedule: Q04DX003 (ip), vehicle: other): 101 % of control
T/C (dose: 100.0 mg/kg/injection, schedule: Q01DX001 (ip), vehicle: other): 96 % of control
T/C [10]: 91 % of control
T/C (dose: 100.0 mg/kg/injection, schedule: Q04DX002 (ip), vehicle: other): 92 % of control and 113 % of control
T/C (dose: 100.0 mg/kg/injection, schedule: Q04DX003 (ip), vehicle: other): 100 % of control
T/C (dose: 150.0 mg/kg/injection, schedule: Q01DX001 (ip), vehicle: other): 98 % of control
T/C (dose: 150.0 mg/kg/injection, schedule: Q01DX009 (ip), vehicle: saline with Tween-80): 92 % of control
T/C (dose: 150.0 mg/kg/injection, schedule: Q04DX003 (ip), vehicle: other): 103 % of control
T/C (dose: 225.0 mg/kg/injection, schedule: Q01DX001 (ip), vehicle: other): 100 % of control
T/C (dose: 225.0 mg/kg/injection, schedule: Q01DX009 (ip), vehicle: saline with Tween-80): 93 % of control
T/C (dose: 225.0 mg/kg/injection, schedule: Q04DX003 (ip), vehicle: other): 96 % of control
T/C (dose: 400.0 mg/kg/injection, schedule: Q04DX002 (ip), vehicle: other): 95 % of control and 103 % of control

COc1cc(Nc2cc(N)nc(N)n2)cc(OC)c1OC
T/C [7]: 95 % of control
T/C [8]: 98 % of control
T/C [9]: 88 % of control

CNc1ccccc1Cc1ccccc1
T/C [2]: 96 % of control
T/C [4]: 103 % of control
T/C [3]: 99 % of control
T/C [5]: 93 % of control
T/C [6]: 98 % of control

COc1cc(C)ccc1Cl
T/C (dose: 50.0 mg/kg/injection, schedule: Q01DX009 (ip), vehicle: saline with Tween-80): 107 % of control
T/C [10]: 113 % of control
T/C (dose: 200.0 mg/kg/injection, schedule: Q01DX009 (ip), vehicle: saline with Tween-80): 110 % of control

N#CC(C#N)=C1C(=O)c2ccccc2-c2ccccc21
T/C (dose: 100.0 mg/kg/injection, schedule: Q01DX001 (ip), vehicle: saline): 107 % of control
T/C (dose: 200.0 mg/kg/injection, schedule: Q01DX001 (ip), vehicle: saline): 109 % of control
T/C (dose: 400.0 mg/kg/injection, schedule: Q01DX001 (ip), vehicle: saline): 105 % of control
